Each block holds one molecule with its values, some of them ahead of it.
Legend:
NIH3T3 = experiment: Intracellular proteolysis of long half-life proteins (3H-leucine); format: cell-based, mouse; details: 10 μM; duration of increase after addition
Method: Proteolysis was calculated from aliquots of the medium taken at different times and precipitated in trichloroacetic acid, as the amount of acid-precipitable radioactivity transformed to acid-soluble radioactivity at each time.

CMA network = experiment: Comparative transcriptomic analysis / qPCR of CMA network; format: cell-based, mouse; details: for changes in the transcriptome: treated cells
Method: mRNA-qPCR: RNA was extracted from individual retinas. Total RNA from retinas was extracted using TRIzol Reagent (Invitrogen), and reverse transcription performed using the High-Capacity cDNA Reverse Transcription Kit (Applied Biosystems) according to the manufacturer's instructions. Quantitative real-time PCR was performed in a Light Cycler 480 Instrument (Roche) with Taqman Universal PCR Master Mix using Taqman assays (Life Tech-nologies). The following probes were used: Mm01184405_m1 (rhodopsin), F-5′-CTTAGCTTCTGGGATGC CCC-3′, R-5′-[…]-3′ (lamp2a) F-5′-AA GGACTCCTA TAGTGGG TGACGA-3′, R-5′-[…]-3′ (mouse β-actin).
Microarray: Total RNA of the treated cells was extracted using TRIzol (Invitrogen) and purified with RNeasy chromatography (Qiagen). Cy3-labeled RNA (0.6 μg) from each condition were hybridized to Agilent Mouse 8×60K. Data were processed using the oligo package and normalized using Robust Multiarray Average (RMA) method. Gene set was filtered to remove genes without Entrez or GO annotation (21912 genes out of 55682) and genes with an […]. The full microarray Gomez-Sintes et al. raw data will be deposited in GEO upon acceptance of the manuscript. Pathway analysis was performed using the STRING database ([…]).
CMA index was calculated using data set from Ly (J. Proteome Research (2016) 15: 1350-1359), Gao (2020), and Lane (2020). Briefly, each element of the CMA network was attributed a weight. As LAMP-2A is the rate limiting component of CMA, it was given a weight of 2. Every other element received a weight of 1. Then, every element was attributed direction score that is +1 or −1 based on the known effect of a given element on CMA activity. The score was then calculated as the weighted/directed average of expression counts of every element of the CMA network.

human cells = experiment: CMA activity, KFERQ-PS-Dendra reporter in human cells; format: cell-based
Method: Cells: NIH3T3 mouse fibroblasts and the N2a neuroblastoma cell line were obtained from the American Type Culture Collection and were validated by genomic PCR. Primary human fibroblasts (GM01651) were from Coriell Repository. All the cells lines were tested for mycoplasma contamination using DNA staining protocol with Hoechst 33258 dye. Knock-down of NCoR1 was done using lentiviral mediated shRNA (SHCLNG-NM_011308) from the Sigma Mission library following standard procedures. Efficiency of knock-down was tested by immunoblot. Cell viability was measured using the CellTiter-Blue kit (Promega) 24 h after the addition of the different stressors according to manufacturer's instructions.
CMA activity: Cells were transduced with lentivirus carrying the KFERQ-PS-Dendra reporter as before. Cells were photoactivated by exposure to a 3.5 mA (current constant) light emitting diode (LED: Norlux, 405 nm) for 3 min and then plated in glass-bottom 96 well plates. At the desired times, cells were fixed with 4% PFA and imaged using high-content microscopy (Operetta system, Perkin Elmer). Images were quantified using the manufacturer's software in a minimum of 1,200 cells in 9 independent fields per well. […] To avoid con-funding effects for drug-induced changes in cell volume or adherence to the plate that could bring a fraction of the cells per field outside of focus, we set a threshold to count only cells that have at least 1/10 of the average number of […] detected in the untreated wells for each cell type (3-4 puncta/cell in the case of NIH3T3 and N2a cells and 5 puncta/cell in primary human fibroblasts). […] Slices were mounted in DAPI-Fluoromount-G to highlight the cell nucleus and allow quantification of puncta per cell. Images were acquired in x-y-z planes with an Axiovert 200 fluorescence microscope (Carl Zeiss Ltd) with a ×63 objective and 1.4 numerical aperture, mounted with an ApoTome.2 slider or with a Confocal microscope (TCS SP5; Leica) using an HCX Plan Apo CS×63.0 1.40 NA oil objective and the Leica Application Suite X (LAS X).

[1] = Pharmacokinetics in mice (plasma and brain); format: in vivo, mouse; details: male, ICR (CD-1), mouse, po, administered orally
Method: ICR (CD-1) male mice were fasted at least three hours and water was available ad libitum before the study. Animals were housed in a controlled environment, target conditions: temperature 18 to 29° C., relative humidity 30 to 70%. Temperature and relative humidity was monitored daily. An electronic time controlled lighting system was used to provide a 12 hr light/12 hr dark cycle. 3 mice for each indicated time point were administered 30 mg/Kg CA39 or CA77 by oral gavage or 1 mg/Kg CA39 or CA77 by intravenous injection using 30% PEG-400, 65% D5W (5% dextrose in water), 5% Tween-80 vehicle. Mice were sacrificed, and brain samples were harvested at 0 hr, 0.25 hr, 0.5 hr, 1 hr, 2 hr, 4 hr, 8 hr, 24 hr, and analyzed for CA39 or CA77 levels using LC-MS/MS. Pharmacokinetics parameters were calculated using Phoenix WinNonlin 6.3. Experiments performed at SIMM-SERVIER joint Biopharmacy Laboratory.

[2] = Chronic toxicity in mice (blood count, histopathology); format: in vivo; details: chronic (5 months) daily oral administration
Method: Liver, lung and kidneys from CA-treated animals were dissected and fixed in 1% PFA overnight and paraffin embedded. Tissues were sectioned, stained with hematoxylin and eosin (H&E) and analyzed by an expert pathologist, blind to the treatment groups, to score for possible presence of toxicity in these organs. Scoring 1-6 was used assigning 6 to those observations clinically relevant. Individual scoring per parameter and per organ and average scoring per organ were performed. Blood cell count in the groups of mice administered vehicle or CA was analyzed in tail blood drawn monthly and at the moment of tissue dissection using an Oxford Science Forcyte Blood Analysis Unit.

cellular RARα and NCoR1 = target: T1, cellular RARα and NCoR1 (Mus musculus, UniProt P11416); experiment: Streptavidin pulldown of RARα and NCoR1 with biotinylated CA compound; format: binding; details: NIH3T3, 10 μM, 24 h
T1 construct: endogenous in cells; host or cells: NIH3T3
T1 sequence (P11416 whole entry): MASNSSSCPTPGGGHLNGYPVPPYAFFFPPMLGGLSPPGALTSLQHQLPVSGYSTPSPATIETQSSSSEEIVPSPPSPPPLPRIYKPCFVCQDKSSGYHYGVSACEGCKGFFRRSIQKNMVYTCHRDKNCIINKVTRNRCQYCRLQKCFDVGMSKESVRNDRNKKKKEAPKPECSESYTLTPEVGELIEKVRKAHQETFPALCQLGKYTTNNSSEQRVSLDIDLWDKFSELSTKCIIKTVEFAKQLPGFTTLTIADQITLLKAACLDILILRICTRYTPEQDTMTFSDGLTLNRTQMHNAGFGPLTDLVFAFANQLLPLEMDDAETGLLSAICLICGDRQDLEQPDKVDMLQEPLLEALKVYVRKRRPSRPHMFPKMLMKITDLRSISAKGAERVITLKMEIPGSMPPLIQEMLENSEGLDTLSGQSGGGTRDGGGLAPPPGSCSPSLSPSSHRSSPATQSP
T1 sequence (Q60974 whole entry partner): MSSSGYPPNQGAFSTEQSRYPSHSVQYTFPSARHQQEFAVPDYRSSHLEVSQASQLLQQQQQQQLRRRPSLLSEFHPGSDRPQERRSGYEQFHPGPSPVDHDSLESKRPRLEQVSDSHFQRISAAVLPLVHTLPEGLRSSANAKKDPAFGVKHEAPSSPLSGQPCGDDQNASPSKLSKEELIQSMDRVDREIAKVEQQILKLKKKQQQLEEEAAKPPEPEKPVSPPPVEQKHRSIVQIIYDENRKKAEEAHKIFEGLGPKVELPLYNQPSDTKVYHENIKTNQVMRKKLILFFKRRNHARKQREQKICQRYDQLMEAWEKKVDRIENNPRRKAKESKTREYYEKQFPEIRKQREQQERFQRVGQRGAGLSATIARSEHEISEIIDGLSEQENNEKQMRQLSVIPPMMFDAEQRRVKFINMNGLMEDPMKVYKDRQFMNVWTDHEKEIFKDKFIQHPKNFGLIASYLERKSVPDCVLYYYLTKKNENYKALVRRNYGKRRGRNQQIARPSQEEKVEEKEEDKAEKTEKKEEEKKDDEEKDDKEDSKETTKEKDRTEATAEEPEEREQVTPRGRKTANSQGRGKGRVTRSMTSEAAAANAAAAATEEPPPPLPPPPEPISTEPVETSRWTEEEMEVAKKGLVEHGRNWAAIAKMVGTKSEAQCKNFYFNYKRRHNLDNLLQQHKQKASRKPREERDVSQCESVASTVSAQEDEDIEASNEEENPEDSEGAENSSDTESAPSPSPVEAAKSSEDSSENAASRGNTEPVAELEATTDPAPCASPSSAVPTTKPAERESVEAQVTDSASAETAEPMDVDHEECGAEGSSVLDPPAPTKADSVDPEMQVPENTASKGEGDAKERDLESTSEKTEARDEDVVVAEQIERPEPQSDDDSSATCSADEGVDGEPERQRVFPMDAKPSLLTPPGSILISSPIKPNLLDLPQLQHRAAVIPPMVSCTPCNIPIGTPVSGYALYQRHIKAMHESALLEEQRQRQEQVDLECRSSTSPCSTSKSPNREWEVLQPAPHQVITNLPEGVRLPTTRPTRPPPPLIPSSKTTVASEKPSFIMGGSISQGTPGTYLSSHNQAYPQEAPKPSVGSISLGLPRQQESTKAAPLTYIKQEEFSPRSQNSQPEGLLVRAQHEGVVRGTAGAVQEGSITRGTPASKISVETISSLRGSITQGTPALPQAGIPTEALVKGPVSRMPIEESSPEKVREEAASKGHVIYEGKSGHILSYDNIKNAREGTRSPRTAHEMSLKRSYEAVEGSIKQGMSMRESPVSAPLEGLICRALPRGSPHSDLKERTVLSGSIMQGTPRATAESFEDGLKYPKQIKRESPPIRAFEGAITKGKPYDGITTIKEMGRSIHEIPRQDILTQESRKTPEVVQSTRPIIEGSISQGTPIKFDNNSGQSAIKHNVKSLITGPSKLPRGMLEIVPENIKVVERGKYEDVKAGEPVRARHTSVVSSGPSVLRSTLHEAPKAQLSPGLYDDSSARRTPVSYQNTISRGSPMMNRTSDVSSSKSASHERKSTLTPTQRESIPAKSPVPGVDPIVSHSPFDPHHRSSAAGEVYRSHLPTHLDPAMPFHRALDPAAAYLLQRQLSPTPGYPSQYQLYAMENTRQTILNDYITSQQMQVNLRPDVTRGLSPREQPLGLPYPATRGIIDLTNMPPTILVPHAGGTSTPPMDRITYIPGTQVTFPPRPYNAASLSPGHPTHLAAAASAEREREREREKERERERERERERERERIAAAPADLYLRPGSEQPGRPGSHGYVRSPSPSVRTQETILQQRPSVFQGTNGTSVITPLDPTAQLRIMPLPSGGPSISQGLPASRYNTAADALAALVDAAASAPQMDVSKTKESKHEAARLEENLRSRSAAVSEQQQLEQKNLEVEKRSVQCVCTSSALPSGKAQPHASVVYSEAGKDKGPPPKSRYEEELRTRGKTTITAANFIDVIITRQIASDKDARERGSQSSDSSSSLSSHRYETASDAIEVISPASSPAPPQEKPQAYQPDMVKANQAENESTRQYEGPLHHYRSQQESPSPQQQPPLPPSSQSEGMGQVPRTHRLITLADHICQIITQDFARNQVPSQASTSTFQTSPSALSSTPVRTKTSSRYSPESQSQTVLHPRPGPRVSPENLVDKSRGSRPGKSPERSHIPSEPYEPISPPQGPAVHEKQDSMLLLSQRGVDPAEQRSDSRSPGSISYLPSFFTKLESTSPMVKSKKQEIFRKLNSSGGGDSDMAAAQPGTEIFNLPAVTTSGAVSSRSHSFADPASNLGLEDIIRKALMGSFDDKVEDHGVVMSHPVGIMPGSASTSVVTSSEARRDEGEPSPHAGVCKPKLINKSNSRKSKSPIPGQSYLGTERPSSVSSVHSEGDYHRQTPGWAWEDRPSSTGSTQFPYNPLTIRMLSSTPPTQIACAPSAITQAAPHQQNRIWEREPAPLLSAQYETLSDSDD

SMILES: Cc1ccc(C2=Nc3ccc(Cl)cc3OC2)cc1 [AR7, reference compound]
intracellular rates of degradation of long-lived proteins (NIH3T3): sustained only for the first 12 h after addition of the compound | number of CMA network components with changed expression (CMA network; of the 17 currently accepted components): 8 | changes in the transcriptome (CMA network): only induced changes in the expression of a discrete fraction of genes | CMA activation (human cells): very discrete

SMILES: CC(=O)Nc1ccc(-c2cnc3cc(Cl)ccc3n2)cc1 [CA77.1]
Kp ([1]; brain/plasma, read-out: AUC brain/plasma): 5.73 | half-life ([1]; plasma, read-out: Plasma half-life (converted)): 3 h | peripheral blood or major organ toxicity [2]: lack of peripheral blood or major organ (liver, lung, kidney) toxicity

SMILES: CC1(C)CC=C(c2cnc3ccccc3c2)c2cc(C(=O)Nc3ccc(C(=O)O)cc3)ccc21 [BMS614]
changes in the transcriptome (CMA network): marked changes in the transcriptome

co-immunoprecipitation of cellular RARα and NCoR1 (cellular RARα and NCoR1): could be co-immunoprecipitated
SMILES: O=C(CCCC[C@H]1SCC2NC(=O)NC21)NCCCOCCOCCOCCCNC(=O)c1ccc(C2=Nc3ccc(Cl)cc3OC2)cc1 (stereo partly drawn) [biotinylated CA compound]

— US20240207282A1, “METHOD OF INCREASING CHAPERONE MEDIATED AUTOPHAGY BY STABILIZING THE INTERACTION OF RETINOIC ACID RECEPTOR-ALPHA AND AN INHIBITOR” (ALBERT EINSTEIN COLLEGE OF MEDICINE, priority 2021, published 2024)
